Assay results: patent publication EP0017478A1, “Dialkoxy- and dioxacycloalkyl-alkyltheobromines, pharmaceutical compositions containing them and their preparation” (BEECHAM - WUELFING GmbH & Co. KG, priority 1979, dated 1980)

Columns and labels:
gastrocnemius muscle = test: Measurement of muscle surface pO2 (multiwire-surface electrode, one femoral artery ligated to induce ischaemia); assay type: in vivo, Cats; conditions: 12.5 mg/kg i.d., suspension in Methocel, n = 4; for Cs (significance coefficient = number of measuring sites with significant pO2 increase per total number of measuring sites) / ΔpO2 (mean pO2 increase in experiments with significant pO2 increase): anaesthetized cats; for E (efficiency-index = Cs x ΔpO2): control values E between 0.1 and 1.2 Torr
Procedure: (§1) Cats of either sex were anaesthetized by i.p. injection of urethane/chloralosc (120/60 mg/kg). The intraduodenal (i.d.) administration of compounds was conducted by means of a plastic.catheter which was inserted into the duodenum following midline incision at the abdominal cavity.
Measurement of muscle surface p02. The skin above the measuring site (3-4 mm in diameter) was removed and one multiwire-surface electrode (Eschweiler, Kiel) was placed on the gastrocnemius muscle of each hindlimb. The femoral artery in one hindlimb was ligated in order to induce ischaemia. Muscle temperature was controlled by means of a thermocouple (Ellab, Copenhagen). The electrode current was measured every 6 to 8 s and collected for periods of 4 min (Hewlett-Packard programmable data logger system 3051 A). After each period, mean value and standard deviation was calculated.

[1] = Observation of toxic effects at the test dosages; assay type: in vivo; conditions: at the test dosage 12.5 mg/kg i.d., cats
Procedure: as §1

Which “Cs (significance coefficient = number of measuring sites with significant pO2 increase per total number of measuring sites)” value (gastrocnemius muscle; hypoxic tissue) does the source give for `Cn1cnc2c1c(=O)n(CCCCC1(C)OCCO1)c(=O)n2C` [2-Methyl-2-(theobrominyl-butyl-4)-1,3-dioxalane] here?
The value was 1.

And the “ΔpO2 (mean pO2 increase in experiments with significant pO2 increase)” value (gastrocnemius muscle; hypoxic tissue)?
Its value is 3.7 Torr.

And the “E (efficiency-index = Cs x ΔpO2)” value (gastrocnemius muscle; hypoxic tissue)?
The value was 3.7 Torr.

What about the “Cs (significance coefficient = number of measuring sites with significant pO2 increase per total number of measuring sites)” value (gastrocnemius muscle; normoxic tissue) of the same compound?
The value was 1.

What about the “ΔpO2 (mean pO2 increase in experiments with significant pO2 increase)” value (gastrocnemius muscle; normoxic tissue) of the same compound?
Its value is 4.8 Torr.

What about the “E (efficiency-index = Cs x ΔpO2)” value (gastrocnemius muscle; normoxic tissue) of the same compound?
The value was 4.8 Torr.

What about the toxic effects [1] of the same compound?
The toxic effects was “No toxic effects were observed”.
